Laboratory results: US12643871B2, “Aryl formamide compound containing chiral sulfur oxide or salt thereof, preparation method, herbicidal composition and use thereof” (Qingdao Kingagroot Chemical Compound Co., Ltd., priority 2019, dated 2026)

Experiments:
Rice = assay: Transplanted rice safety evaluation; assay type: in vivo, rice (japonica rice/Indica rice); conditions: 60 g/ha; transplanted 3 leaf stage rice, 21 days after treatment
From the text: (§1) The activity level criteria for harmful plant damage (i.e., growth control rate) are as follows: • Level 5: growth control rate is above 85%; • Level 4: growth control rate is greater than or equal to 60% and less than 85%; • Level 3: growth control rate is greater than or equal to 40% and less than 60%; • Level 2: growth control rate is greater than or equal to 20% and less than 40%; • Level 1: growth control rate is greater than or equal to 5% and less than 20%; • Level 0: growth control rate is less than 5%.
In addition, the rice field soil that loaded into the 1/1,000,000 ha pot was leveled to keep water storage at 3-4 cm depth. The 3 leaf stage rice (japonica rice/Indica rice) was transplanted at 3 cm of transplanting depth the next day. The compound of the present invention was treated by the same way after 5 days of transplantation.
(§2) The fertility condition of Echinochloa crusgali, Scirpus juncoides, Bidens tripartita, Leptochloa chinensis, Sagittaria trifolia and Monochoria vaginalis 14 days after the treatment of the compound of the invention and the fertility condition of rice 21 days after the treatment of the compound of the invention respectively with the naked eye. Evaluate the weed control effect with 0-5 activity standard level. Many compounds show excellent activity and selectivity.

Sagittaria trifolia = assay: Weed control effect evaluation in rice field; assay type: in vivo; conditions: 60 g/ha; rice field pot, 14 days after treatment; ALS-inhibitor resistant weed from Heilongjiang
From the text: as §1
(§3) Rice field soil was loaded into a 1/1,000,000 ha pot. The seeds of Echinochloa crusgali, Scirpus juncoides, Bidens tripartita, Sagittaria trifolia, Monochoria vaginalis and Leptochloa chinensis were sowed and gently covered with soil, then left to stand still in greenhouse in the state of 0.5-1 cm of water storage. The tuber of Sagittaria trifolia was planted in the next day or 2 days later. It was kept at 3-4 cm of water storage thereafter. The weeds were treated by dripping the WP or SC water diluents prepared according to the common preparation method of the compounds of the present invention with pipette homogeneously to achieve specified effective amount when Echinochloa crusgali, Scirpus juncoides, Bidens tripartita, Monochoria vaginalis and Leptochloa chinensis reached 0.5 leaf stage and Sagittaria trifolia reached the time point of primary leaf stage.
as §2

Leptochloa chinensis = assay: Weed control effect evaluation in rice field; assay type: in vivo; conditions: 60 g/ha; rice field pot, 14 days after treatment
From the text: as §1, §3, §2

Echinochloa crusgali [1] = assay: Weed control effect evaluation in rice field; assay type: in vivo; conditions: 60 g/ha; rice field pot, 14 days after treatment; ALS-inhibitor resistant weed from Heilongjiang
From the text: as §1, §3, §2

Monochoria vaginalis = assay: Weed control effect evaluation in rice field; assay type: in vivo; conditions: 60 g/ha; rice field pot, 14 days after treatment; ALS-inhibitor resistant weed from Heilongjiang
From the text: as §1, §3, §2

Setaria viridis = assay: Weeding effect in post-emergence stage; assay type: in vivo; conditions: 250 g/ha; 2 leaf stage; 15 days after application; fresh weight control rate
Procedure, shortened: (§4)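 Activity graded 0 (<5%) to 5 (>85%) from fresh-weight control rate, averaged over three repeats, 15 days after a spray-tower application. Plants at 2-leaf stage (2 weeks post-sowing) received 15–500 g/ha of compound formulated in acetone, Tween 80 and methyl oleate synergist (1.5 L/ha).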

Abutilon theophrasti = assay: Weeding effect in post-emergence stage; assay type: in vivo; conditions: 250 g/ha; 2 leaf stage; 15 days after application; fresh weight control rate
Procedure, shortened: as §4

Echinochloa crusgali [2] = assay: Weeding effect in post-emergence stage; assay type: in vivo; conditions: 250 g/ha; 2 leaf stage; 15 days after application; fresh weight control rate
Procedure, shortened: as §4

Amaranthus retroflexus = assay: Weeding effect in post-emergence stage; assay type: in vivo; conditions: 250 g/ha; 2 leaf stage; 15 days after application; fresh weight control rate
Procedure, shortened: as §4

Digitaria sanguinalis = assay: Weeding effect in post-emergence stage; assay type: in vivo; conditions: 250 g/ha; 2 leaf stage; 15 days after application; fresh weight control rate
Procedure, shortened: as §4

In the case of `CC[S@@+]([O-])c1c(C(F)(F)F)ccc(C(=O)Nc2nnc(C)o2)c1SC` [Compound 548], the “Herbicidal effects of compounds, Rice, 0-5 activity standard level” value (Rice) is reported as 0 (Level 0: growth control rate is less than 5%), the “Herbicidal effects of compounds, Sagittaria trifolia, 0-5 activity standard level” value (Sagittaria trifolia) is reported as 5 (Level 5: growth control rate is above 85%) and the “Herbicidal effects of compounds, Leptochloa chinensis, 0-5 activity standard level” value (Leptochloa chinensis) is reported as 5 (Level 5: growth control rate is above 85%). For the same compound, the “Herbicidal effects of compounds, Echinochloa crusgali, 0-5 activity standard level” value (Echinochloa crusgali [1]) was 5 (Level 5: growth control rate is above 85%), the “Herbicidal effects of compounds, Monochoria vaginalis, 0-5 activity standard level” value (Monochoria vaginalis) was 5 (Level 5: growth control rate is above 85%) and the “weeding effect in post-emergence stage, activity level (growth control rate), Setaria viridis” value (Setaria viridis) was 5 (Level 5: growth control rate is above 85%). The “weeding effect in post-emergence stage, activity level (growth control rate), Abutilon theophrasti” value (Abutilon theophrasti) was 5 (Level 5: growth control rate is above 85%), the “weeding effect in post-emergence stage, activity level (growth control rate), Echinochloa crusgali” value (Echinochloa crusgali [2]) was 5 (Level 5: growth control rate is above 85%) and the “weeding effect in post-emergence stage, activity level (growth control rate), Amaranthus retroflexus” value (Amaranthus retroflexus) was 5 (Level 5: growth control rate is above 85%). For the same compound, the “weeding effect in post-emergence stage, activity level (growth control rate), Digitaria sanguinalis” value (Digitaria sanguinalis) was 5 (Level 5: growth control rate is above 85%).
